Results as given in US5919790A, “Hydroxamate inhibitors of interleukin-1β converting enzyme” (Warner-Lambert Company, priority 1997, dated 1999).
pIC50, pKi: −log10 of the molar value. Read-outs that look alike come from different tables or passages of the source.

Experiments:
[1] = biological target: T1, ICE (interleukin-1β converting enzyme) (Homo sapiens, UniProt P29466); experiment: ICE Colorimetric Dose-Response (IC50) Assay; type: biochemical; conditions: 50 μM Ac-Tyr-Val-Ala-Asp-pNA, 60 min preincubation, pH 7.5, 25° C.
T1 sequence (P29466 120-297 limits assumed): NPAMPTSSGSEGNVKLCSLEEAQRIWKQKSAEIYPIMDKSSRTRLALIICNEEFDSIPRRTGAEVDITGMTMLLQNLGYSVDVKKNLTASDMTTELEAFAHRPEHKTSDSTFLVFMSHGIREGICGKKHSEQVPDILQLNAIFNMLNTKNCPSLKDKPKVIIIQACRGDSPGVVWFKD
T1 sequence (P29466 317-404 limits assumed): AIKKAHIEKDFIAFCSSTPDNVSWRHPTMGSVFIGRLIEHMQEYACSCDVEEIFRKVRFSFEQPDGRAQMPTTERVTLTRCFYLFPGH
Description: Substrate hydrolysis is monitored for 300 seconds by observing the fluorescence of released AMC using excitation at 380 nm and emission at 460 nm. Mean rates of substrate hydrolysis are evaluated by linear-regression analysis of the fluorescence vs time traces. […] ICE Colorimetric Dose-Response (IC50) Assay Diluted inhibitor stocks are prepared by two-fold serial dilution from a primary stock whose concentration is selected (based on screening results or on prior attempts at IC50 evaluation) to achieve approximately 95% inhibition in the most concentrated well. Aliquots of each dilution are transferred to a microtitre plate in triplicate. […] The activated enzyme is then aliquoted into wells containing inhibitor or vehicle, and the plate is preincubated for 60 minutes at ambient temperature. Substrate ([…]) is added to each well to a final concentration of 50 μM, and plates are placed in the microtitre plate-reader thermostated to 25° C. Beginning 5 minutes after addition of substrate, absorbance (405 nm) of wells is monitored for 1 hour, and activity is calculated as the mean rate of change in absorbance during this interval.

[2] = biological target: T1, ICE (interleukin-1β converting enzyme); experiment: ICE inhibition, Ki, fluorescence assay with Ac-Tyr-Val-Ala-Asp-AMC; type: biochemical; conditions: 15 μM substrate Ac-Tyr-Val-Ala-Asp-AMC; 0.24 nM ICE; reversible, competitive model
Description: Substrate hydrolysis is monitored for 300 seconds by observing the fluorescence of released AMC using excitation at 380 nm and emission at 460 nm. Mean rates of substrate hydrolysis are evaluated by linear-regression analysis of the fluorescence vs time traces. […] ICE Colorimetric Dose-Response (IC50) Assay

PBMC viability (MTT) = type: cell-based; conditions: human PBMCs, additional 4 hours, read-out: PBMC TC50
Text: (§1) Further evidence that compounds of Formula I are inhibitors of ICE is provided by their ability to inhibit IL-1β production in human peripheral blood mononuclear cells (PBMCs) as described herein. PBMCs are isolated from heparinized blood by centrifugation over a ficoll cushion, then washed three times with phosphate-buffered saline. PBMCs are suspended in a medium containing RPMI 1640 with glutamine, penicillin, streptomycin and 2% human AB serum, then plated at 10^6 cells per well in 96 well flat bottom plates. PBMCs are stimulated overnight with 10 ngmL of lipopolysaccharide (LPS, E. coli strain 0111:B4; Calbiochem) in the presence or absence of a compound of Formulas I or II. Medium is harvested and the level of mature IL-1β was determined using an ELISA kit from R & D Systems. Cells were cultured for an additional 4 hours in the presence of 3-(4,5-dimethylthiazol-2-yl)-2,5-diphenyltetrazolium bromide (MTT) to determine viability.

[3] = tested on: IL-1β production in human peripheral blood mononuclear cells (PBMCs); experiment: inhibition of LPS-stimulated IL-1β production in human PBMCs (ELISA); type: cell-based; conditions: LPS stimulated overnight, mature IL-1β by ELISA
Text: as §1

Ich-2 = biological target: T2, Ich-2 (Homo sapiens, UniProt P49662); experiment: Ich-2 Colorimetric Dose-Response (IC50) Assay; type: biochemical; conditions: 64 nM enzyme, 60 μM Ac-Leu-Glu-Val-Asp-pNA
T2 sequence (P49662 81-270 limits assumed): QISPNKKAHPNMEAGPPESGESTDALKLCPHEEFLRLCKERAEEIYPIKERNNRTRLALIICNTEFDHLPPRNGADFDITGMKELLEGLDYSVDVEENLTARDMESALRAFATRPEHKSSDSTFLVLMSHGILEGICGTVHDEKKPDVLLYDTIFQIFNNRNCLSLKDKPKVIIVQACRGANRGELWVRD
T2 sequence (P49662 290-377 limits assumed): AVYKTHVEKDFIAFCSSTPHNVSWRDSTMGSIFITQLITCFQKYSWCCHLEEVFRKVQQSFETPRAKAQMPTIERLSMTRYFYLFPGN
Description: Diluted inhibitor stocks are prepared by two-fold serial dilution from a primary stock whose concentration is selected (based on screening results or on prior attempts at IC50 evaluation) to achieve approximately 95% inhibition in the most concentrated well. Aliquots of each dilution are transferred to a microtitre plate in triplicate.
ICE enzyme is diluted to approximately 24 nM in HGE buffer (100 mM Hepes pH 7.5, 0.5 mM EDTA, 20% glycerol, 0.1% Bovine Serum Albumin (BSA), and activated by adding dithiothreitol (DTT) to a final concentration of 5 mM. The activated enzyme is then aliquoted into wells containing inhibitor or vehicle, and the plate is preincubated for 60 minutes at ambient temperature. Substrate (Ac-Tyr-Val-Ala-Asp-pNA) is added to each well to a final concentration of 50 μM, and plates are placed in the microtitre plate-reader thermostated to 25° C. Beginning 5 minutes after addition of substrate, absorbance (405 nm) of wells is monitored for 1 hour, and activity is calculated as the mean rate of change in absorbance during this interval.
Ich-2 Colorimetric Dose-Response (IC50 Assay
Inhibition of Ich-2 enzyme is assayed as described above for ICE, except that enzyme is used at 64 nM, and 60 μM of the Ich-2-specific substrate Ac-Leu-Glu-Val-Asp-pNA is used instead of the ICE substrate Ac-Tyr-Val-Ala-Asp-pNA.

pIC50 [1]	pKi [2]	pIC50 (Ich-2)	SMILES	CC50 at 4 h (PBMC viability (MTT))	pIC50 ([3]; PBMC)	pIC50 ([3]; read-out: PBMC IC50)
5.51	5.80	7.10	O=C(O)CC(NC(=O)OCc1ccccc1)C(=O)CON1C(=O)Cc2ccccc21 (centres unmarked) [Example 4, 3-Benzyloxycarbonylamino-5-(2-oxo-2,3-dihydro-indol-1-yloxy)-4-oxo-pentannic acid]	1000 µM	3.00	–
4.10	4.82	4.47	COC(=O)CC1CCCC2CC(=O)N(OCC(=O)[C@H](CC(=O)O)NC(=O)OCc3ccccc3)C12 (some centres unmarked) [Example 5, 3-Benzyloxycarbonylamino-5-(7-methoxycarbonylmethyl-2-oxo-octahydro-indol-1-yloxy)-4-oxo-pentanoic acid]	–	3.05	–
7.59	8.15	6.85	COC(=O)CC1CCCC2CC(=O)N(OCC(=O)C(CC(=O)O)NC(=O)C(C)NC(=O)C(NC(=O)OCc3ccccc3)C(C)C)C12 (centres unmarked) [Example 7]	–	–	5.32
3.59	4.10	–	O=C(O)CC(NC(=O)OCc1ccccc1)C(=O)CONC(=O)Cc1ccccc1 (centres unmarked) [Example 1, 3-Benzyloxycarbonylamino-4-oxo-5-phenylacetylaminooxy-pentanoic acid]	–	3.09	–
6.34	5.68	7.00	O=C(O)C[C@H](NC(=O)OCc1ccccc1)C(=O)CON1C(=O)C2C3C=CC(O3)C2C1=O (some centres unmarked) [Example 3, 3-Benzyloxycarbonylamino-5-(3,5-dioxo-10-oxa-4-aza-tricyclo[5.2.1.0^2,6]dec-8-en-4-yloxy)-4-oxo-pentanoic acid]	1000 µM	3.00	–
3.40	4.06	–	O=C(O)C[C@H](NC(=O)OCc1ccccc1)C(=O)CON1CCCC1=O [Example 2, 3-Benzyloxycarbonylamino-4-oxo-5-(2-oxo-pyrrolidin-1-yloxy)-pentanoic acid]	–	–	–
4.43	5.04	–	O=C(O)CC(NC(=O)OCc1ccccc1)C(=O)CON1C(=O)CC2CCCCC21 (centres unmarked) [Example 6]	–	–	–
8.52	8.70	8.30	CC(NC(=O)C(NC(=O)OCc1ccccc1)C(C)C)C(=O)NC(CC(=O)O)C(=O)CON1C(=O)Cc2ccccc21 (centres unmarked) [Example 8, 3-[2-(2-benzyloxicarbonylamino-3-methyl-butyrylamino)-propionylamino]-4-oxo-5-(2-oxo-2,3-dihydro-indol-1-yloxy)-pentanoic acid]	–	5.52	–
